Patent publication US20090246212A1, “DEVELOPMENT OF METHOD FOR SCREENING FOR DRUG CAPABLE OF IMPROVING PRODUCTION OF REGULATORY T CELLS AND METHOD FOR PRODUCING REGULATORY T CELLS USING IMMUNOSUPPRESSIVE MACROLIDE ANTIBIOTIC” (KYOTO UNIVERSITY, priority 2005, published 2009)

Assays:
mouse CD4^+ T = conditions: cited from earlier work
[1] = tested on: CD45RA^+CD25^+CD4^+ T cells; assay: FACS phenotype analysis of the T cell line from CD45RA^+CD25^+CD4^+ T cells cultured with rapamycin; type: cell-based, human
Experimental: PBMC derived from the subjects, or expanded T cell line were incubated with various antibodies for 30 min at 4° C. in the dark, washed, and analyzed using a BD FACSAria cell sorter and a FACSDiVA software (Becton Dickinson). The antibodies used were perCP-conjugated anti-CD4 mAb, biotin-conjugated anti-CD25 mAb, FITC-conjugated anti-CD45RA mAb, PE-conjugated anti-CD45RB mAb, anti-CD45RO mAb, anti-CD62L mAb, anti-CD38 mAb, anti-GITR mAb, and anti-TNFRII mAb. For intracellular staining with CTLA-4, the cells were subjected to cell surface staining, fixation, and permeabilization with Cytofix/Cytoperm solution (Becton Dickinson), and then intracellularly stained with PE-conjugated anti-CTLA-4.
(§1) CD45RA^+CD25^+CD4^+ T cells or CD45RA^+CD25^−CD4^+ T cells in human peripheral blood separated in the same manner as Example 1 (5×10̂4 cells/well) were stimulated with anti-human CD3 and CD28 conjugate beads in a ratio of 4 beads per cell in a 96-well round-bottomed culture plate containing 200 μl per well of a proliferation medium (AlyS505N (produced by Cell Science & Technology Institute) supplemented with 2% human AB serum) in the presence of human IL-2 (1000 U/ml, produced by Cell Science & Technology Institute). Rapamycin (20 nM, produced by Sigma) was added to the medium 0 or 40 days after the start of cultivation. Every 3 to 4 days, half of the medium was replaced with a fresh proliferation medium containing IL-2. If necessary, the cells were separated and repeatedly re-stimulated with anti-CD3/CD28 antibody conjugate beads every 10 to 14 days. Fifty days after the start of cultivation, the cells were collected and used for FACS analysis.
Expanded T cell lines were incubated with various antibodies for 30 minutes at 4° C. in the dark, washed, and analyzed using BD FACSAria cell sorter and FACSDiVA software (Becton Dickinson). The antibodies and staining conditions used were the same as Example 1.

[2] = tested on: CD45RA^+CD25^−CD4^+ T cell line; assay: Suppression assay ([^3H] thymidine uptake) of the rapamycin-cultured CD45RA^+CD25^−CD4^+ T cell line; type: cell-based, human; conditions: then 2 days without rapamycin
Experimental: as §1, with “cells” for “cells in human peripheral blood separated in the same manner as Example 1”, “cells/well) separated as described above” for “cells/well)”, “added as appropriate.” for “added to the medium 0 or 40 days after the start of cultivation.”, “antibody conjugated” for “antibody conjugate”, “days. […]” for “days. Fifty days after the start of cultivation, the cells were collected and used for FACS analysis.”
(§2) The indicated number of CD45RA^+CD25^+CD4^+ T cells just isolated from human peripheral blood, expanded CD45RA^+CD25^+CD4^+ T cell lines, or expanded CD45RA^+CD25^−CD4^+ T cell line, alone or along with self responder CD4^+ T cells (5×10̂4 cells/well), were stimulated with radiated (40 Gy) allogenic PBMC (1×10̂5 cells/well) in a round-bottomed 96-well microplate containing a proliferation medium. […] Subsequently, the cells were recovered, and [^3H] thymidine uptake was measured using 1450 Microbeta TriLux (Wallac).

[3] = tested on: CD45RA^+CD25^+CD4^+ T cell line; assay: Suppression assay ([^3H] thymidine uptake) of the rapamycin-cultured CD45RA^+CD25^+CD4^+ T cell line; type: cell-based, human; conditions: then 2 days without rapamycin
Experimental: as §1, with “cells” for “cells in human peripheral blood separated in the same manner as Example 1”, “cells/well) separated as described above” for “cells/well)”, “added as appropriate.” for “added to the medium 0 or 40 days after the start of cultivation.”, “antibody conjugated” for “antibody conjugate”, “days. […]” for “days. Fifty days after the start of cultivation, the cells were collected and used for FACS analysis.”
as §2

IgE-like antibody = conditions: in vivo; cited from earlier work
[4] = tested on: CD45RA^+CD25^+CD4^+ T cells; assay: Expansion culture of CD45RA^+CD25^+CD4^+ T cells with anti-CD3/CD28 beads and IL-2, rapamycin added; type: cell-based, human; conditions: for increase of cell number in the culture product: 50 days after start
Experimental: Venous blood was obtained from healthy volunteers (human). Peripheral blood mononuclear cell (PBMC) was isolated by Ficoll-Hypaque (Amersham Biosciences-Uppsala) density gradient centrifugation. The cells were stained with allophycocyanin (APC)-conjugated anti-CD4 monoclonal antibody (mAb), phycoerythrin (PE)-conjugated anti-CD25 mAb, and fluorescein isothiocyanate (FITC)-conjugated anti-CD45RA mAb for 30 min at 4° C. in the dark, after which the following six different cell fractions were isolated using a BD FACSAria cell sorter (Becton Dickinson)(see FIG. 1A).
CD45RA^+CD25^+CD4^+ T cells or CD45RA^+CD25^−CD4^+ T cells (5×10̂4 cells/well) separated as described above were stimulated with anti-human CD3 and CD28 conjugate beads in a ratio of 4 beads per cell in a 96-well round-bottomed culture plate containing 200 μl per well of a proliferation medium (AlyS505N (produced by Cell Science & Technology Institute) supplemented with 2% human AB serum) in the presence of human IL-2 (1000 U/ml, produced by Cell Science & Technology Institute). Rapamycin (20 nM, produced by Sigma) was added as appropriate. Every 3 to 4 days, half of the medium was replaced with a fresh proliferation medium containing IL-2. If necessary, the cells were separated and repeatedly re-stimulated with anti-CD3/CD28 antibody conjugated beads every 10 to 14 days. Two days before functional assay, the anti-CD3/CD28 antibody conjugated beads were removed magnetically, and the cells were cultured along with 100 U/ml IL-2 in the absence of rapamycin. After 3 times of washing, the cells were used for functional assay.

[5] = stimulated in the presence of rapamycin
[6] = rapamycin 20 nM from day 40, collected day 50

In the case of `CO[C@H]1C[C@@H]2CC[C@@H](C)[C@@](O)(O2)C(=O)C(=O)N2CCCC[C@H]2C(=O)O[C@H]([C@H](C)C[C@@H]2CC[C@@H](O)[C@H](OC)C2)CC(=O)[C@H](C)/C=C(\C)[C@@H](O)[C@@H](OC)C(=O)[C@H](C)C[C@H](C)/C=C/C=C/C=C/1C` [rapamycin], the “CD4^+CD25^+FOXP3^+ regulatory T cells” value (mouse CD4^+ T; mouse CD4^+ T stimulated with an antigen in the presence of rapamycin) is given as “expanded selectively”, the “expression of FOXP3 in CD4^+CD25^− T cells” value (mouse CD4^+ T; [5]) is given as “did not enhance” and the “proliferation of isolated CD4^+CD25^+ T cells” value (mouse CD4^+ T; [5]) is given as “proliferated vigorously”. The “suppressive function of the T cell population produced from CD4^+CD25^+ T cells” value (mouse CD4^+ T; [5]) was “having suppressive function”, the “suppressive function of the T cell population produced from CD4^+CD25^− T cells” value (mouse CD4^+ T; [5]) was “without suppressive function” and the “CD45RO phenotype of the T cell line” value ([1]; rapamycin 20 nM from day 0, collected day 50) was “negative”. For the same compound, the “CD25 expression relative to CD45RA^−CD25^high+CD4^+ T cells in peripheral blood” value [1, 6] was “about 0.8 times”, the “CD45RA expression relative to CD45RA^+CD25^+CD4^+ T cells in peripheral blood” value [1, 6] was “about ⅙” and the “CD45RB expression relative to CD45RA^−CD25^high+CD4^+ T cells in peripheral blood” value [1, 6] was “about 4 times”. The “CD45RO expression relative to CD45RA^−CD25^high+CD4^+ T cells in peripheral blood” value [1, 6] was “about 1/50”, the “CD62L expression relative to CD45RA^−CD25^high+CD4^+ T cells in peripheral blood” value [1, 6] was “about ⅙” and the “GITR / CTLA4 phenotype of the T cell line” value [1, 6] was “GITR^+CTLA4^+”. The “T cell line's effect on proliferation of CD4^+ T cells in response to alloantigen-presenting cells” value (shortened to “T cell line's effect on proliferation”) ([2]; rapamycin added day 19, about 35 days after start) was “strongly suppressed”, the “T cell line's effect on proliferation” value ([2]; rapamycin from day 0, about 35 days culture) was “strongly suppressed” and the “T cell line's effect on proliferation” value ([3]; rapamycin added day 7 or day 39, collected 50 days after start) was “strongly suppressed”. The “T cell line's effect on proliferation” value ([3]; rapamycin from day 0, 50 days culture) was “strongly suppressed”, the “formation of IgE-like antibody” value (IgE-like antibody) was “effectively inhibited” and the “increase of cell number in the culture product” value (shortened to “increase of cell number”) ([4]; rapamycin 20 nM added 7 days after start) was “about 60 times”. The “proliferation of the CD45RA^+CD25^+CD4^+ T cell line” value ([4]; rapamycin 20 nM added 7 days or 39 days after start of cultivation) was “suppressed after the time of addition”, the “increase of cell number” value ([4]; rapamycin 20 nM added 39 days after start) was “about 700 times” and the “proliferation of CD45RA^+CD25^+CD4^+ T cells” value ([4]; rapamycin 20 nM added from the start of cultivation) was “suppressed”. The “increase of cell number” value ([4]; rapamycin 20 nM added from the start of cultivation (day 0)) was “about 20 times”.
